The values below are quoted from earlier work in patent US6635280B2, “Extending the duration of drug release within the stomach during the fed mode” (DepoMed, Inc., priority 1997, dated 2003).

For the series the following is noted: oral doses administered with or following a meal.

As for `Cc1c(O)cccc1C(=O)N[C@@H](CSc1ccccc1)[C@H](O)CN1C[C@H]2CCCC[C@H]2C[C@H]1C(=O)NC(C)(C)C` [nelfinavir], the “area under the plasma concentration-time curve, increase with or following a meal” value was “two-fold to three-fold” and the “peak plasma concentration, increase with or following a meal” value is reported as “two-fold to three-fold”.
